Assay results from patent US20260199427A1 (priority 2021, published 2026).
“And” between values parts separate entries of the source, which are not always exact repeats. Equal values may be shown once.

Legend:
[1] = test system: B. anthracis Ames NR-3838 spores; details: rabbit, in vivo
[2] = test system: B. anthracis Ames NR-3838 spores; parameters: species or system New Zealand White (NZW) rabbits; details: rabbit, in vivo
[3] = test system: B. anthracis Ames NR-3838 spores; parameters: species or system New Zealand White (NZW) rabbits; details: rabbit, in vivo; remark: listed apart in the source
[4] = test system: B. anthracis; experiment: microbe, parasite or virus in culture; assay type: cell-based; details: Bacillus anthracis
[5] = test system: B. anthracis Ames spores (NR3838); parameters: species or system New Zealand White (NZW) rabbits; details: rabbit, in vivo
[6] = test system: B. anthracis Ames spores (NR3838); parameters: species or system New Zealand White (NZW) rabbits; details: rabbit, in vivo; remark: listed apart in the source
[7] = test system: B. anthracis Ames NR-3838 spores; parameters: species or system New Zealand White (NZW) rabbits; details: rabbit, in vivo; remark: listed apart in the source
[8] = test system: B. anthracis Ames spores (NR3838); parameters: species or system New Zealand White (NZW) rabbits; details: rabbit, in vivo; remark: listed apart in the source
[9] = test system: B. anthracis Ames NR-3838 spores; parameters: species or system New Zealand White (NZW) rabbits; details: rabbit, in vivo; remark: listed apart in the source
[10] = test system: B. anthracis Ames spores (NR3838); parameters: species or system New Zealand White (NZW) rabbits; details: rabbit, in vivo; remark: listed apart in the source

| Structure (SMILES) | maximum percent weight loss [1] | peak of febrile response (core body temperature) [1] [°C] | animals positive for bacteremia [2] | average level of bacteremia, comparing only the two antibiotic-treated groups [2] | Average Bacterial Load (cfu/g), lung [3] [cfu/g] | average bacterial load in the lung tissue, comparing only the two antibiotic-treated groups [3] | MIC [4] [µg/mL] | bacteremia [5] | overall survival rate [6] [%] | survival [6] | anthrax induced lesions (histopathology) [7] | anthrax-related lesions (histopathology) [8] | survival [9] [%] | B. anthracis bacterial load in lymph node tissue [10] [cfu/g] | B. anthracis bacterial load in spleen tissue [10] [cfu/g] |
| --- | --- | --- | --- | --- | --- | --- | --- | --- | --- | --- | --- | --- | --- | --- | --- |
| CCCCCCCCCCNCCNC1(C)CC(OC2C(Oc3c4cc5cc3Oc3ccc(cc3Cl)[C@@H](O)[C@@H](NC(=O)[C@@H](CC(C)C)NC)C(=O)N[C@@H](CC(N)=O)C(=O)N[C@H]5C(=O)N[C@H]3C(=O)N[C@H](C(=O)N[C@H](C(=O)O)c5cc(O)c(CNCP(=O)(O)O)c(O)c5-c5cc3ccc5O)[C@H](O)c3ccc(c(Cl)c3)O4)OC(CO)C(O)C2O)OC(C)C1O (some centres unmarked) [Vibativ, N^3″-[2-(decylamino)ethyl]-29-[[(phosphonomethyl)amino]methyl]vancomycin] | significantly (p<0.05) higher | ~41 | 2 out of 12 | significantly (p<0.05) lower | 1.93E+03 | significantly (p<0.05) lower | < 0.0625 | never developed bacteremia at a detectable level | 67 | 100% and 60% | mitigation of anthrax induced lesions | generally mitigated | 100 | – | – |
| C[C@H]1COc2c(N3CCN(C)CC3)c(F)cc3c(=O)c(C(=O)O)cn1c23 [Levofloxacin] | – | ~41 | – | – | 6.93E+03 | – | – | – | 50 | 100% and 50% | – | – | 100 | 0 | 0 |
